Data set [1] concerns Escherichia coli K-12 MG1655. As to the kind of experiment: Screening for tolerance in wild-type cells: growth in varying concentrations of diols (Biolector). Format: cell-based. The note with it: for growth observed at maximum concentration / Maximum concentration for robust growth: K-12 MG1655; for toxicity threshold: E. coli.
The test system of another data set is E. coli K-12 MG1655. Format: cell-based.
A further data set relates to K-12 MG1655. Format: cell-based, Escherichia coli.
Where [2] appears, read: growth rate of K-12 MG1655, diol 0.5% (v/v), M9+1% glucose, 37° C.
Where [3] appears, read: growth rate of K-12 MG1655, diol 1% (v/v).
Where [4] appears, read: growth rate of K-12 MG1655, diol 2% (v/v).
Setting [5] is: growth rate of K-12 MG1655, diol 3.5% (v/v).
[6] abbreviates: growth rate of K-12 MG1655, diol 5% (v/v).
The mark [7] stands for this setting: growth rate of K-12 MG1655, diol 7.5% (v/v).
[8] abbreviates: growth rate of K-12 MG1655, diol 10% (v/v).
Setting [9] is: lag time of K-12 MG1655, diol 0.5% (v/v).
Where [10] appears, read: lag time of K-12 MG1655, diol 1% (v/v).
Where [11] appears, read: lag time of K-12 MG1655, diol 2% (v/v).
The mark [12] stands for this setting: lag time of K-12 MG1655, diol 3.5% (v/v).
The mark [13] stands for this setting: lag time of K-12 MG1655, diol 5% (v/v).
[14] abbreviates: K-12 MG1655, diol 1 % (v/v), Growth Profiler.
[15] abbreviates: K-12 MG1655, diol 2 % (v/v), Growth Profiler.
Where [16] appears, read: K-12 MG1655, diol 3 % (v/v), Growth Profiler.
The mark [17] stands for this setting: K-12 MG1655, diol 4 % (v/v), Growth Profiler.
Setting [18] is: K-12 MG1655, diol 5 % (v/v), Growth Profiler.
Where [19] appears, read: K-12 MG1655, diol 6 % (v/v), Growth Profiler.
The mark [20] stands for this setting: K-12 MG1655, diol 7.5 % (v/v), Growth Profiler.

The structures appear in SMILES notation. Entries after “also recorded” stand apart in the source; their conditions may differ. Like-named read-outs stand apart in the source and are kept apart here.

Take `CCCC(O)CO` (centres unmarked) [1,2-pentanediol]: the “growth observed at maximum concentration” value in data set [1] came out at 1%. In addition, the “μ, mean” value in data set [1] (setting [2]) is 0.524 h⁻¹; in data set [1] (setting [3]) it was 0.346 h⁻¹; in data set [1] (setting [4]), 0.000 h⁻¹; in data set [1] (setting [5]), 0.000 h⁻¹; in data set [1] (setting [6]) it was 0.000 h⁻¹; in data set [1] (setting [7]) it was 0.000 h⁻¹. The “μ, mean” value in data set [1] (setting [8]) is 0.000 h⁻¹. Further, the results for the “tlag, mean” value in data set [1] (setting [9]) and in data set [1] (setting [10]) were 0.4 h and 1.3 h, respectively.

Consider `OCCCCCO` [1,5-pentanediol], for which the “growth observed at maximum concentration” value in data set [1] is reported as 3.5%. The “μ, mean” value stood at 0.613 h⁻¹ in data set [1] (setting [2]); 0.569 h⁻¹ in data set [1] (setting [3]); 0.437 h⁻¹ in data set [1] (setting [4]); 0.158 h⁻¹ in data set [1] (setting [5]); 0.000 h⁻¹ in data set [1] (setting [6]); 0.000 h⁻¹ in data set [1] (setting [7]). Moreover, in data set [1] (setting [8]), the “μ, mean” value was determined as 0.000 h⁻¹. Also, the “tlag, mean” value was 0.3 h in data set [1] (setting [9]), 0.5 h in data set [1] (setting [10]), 0.9 h in data set [1] (setting [11]) and -8.8 h in data set [1] (setting [12]).

With `OCCCCO` [1,4-butanediol], the “growth inhibition of E. coli K-12 MG1655 (in words)” value with E. coli K-12 MG1655 is “elicited growth inhibition”.

For the compound `CC(O)CO` (centres unmarked) [1,2-propanediol], the “Maximum concentration for robust growth” value in data set [1] is reported as 7.5%. The “μ, mean” value came out at 0.701 h⁻¹ in data set [1] (setting [2]); 0.662 h⁻¹ in data set [1] (setting [3]); 0.595 h⁻¹ in data set [1] (setting [4]); 0.442 h⁻¹ in data set [1] (setting [5]); 0.406 h⁻¹ in data set [1] (setting [6]); 0.579 h⁻¹ in data set [1] (setting [7]). Also, in data set [1] (setting [8]), the “μ, mean” value was 0.000 h⁻¹. The “tlag, mean” value in data set [1] (setting [9]) is 0.9 h; in data set [1] (setting [10]) it was 0.8 h; in data set [1] (setting [11]) it was 0.8 h; in data set [1] (setting [12]), 0.5 h; in data set [1] (setting [13]) it was 2.3 h; in data set [1] (lag time of K-12 MG1655, diol 7.5% (v/v)), 8.3 h.

Regarding `CSCC[C@H](N)C(=O)O` [methionine, L-methionine], in the data set with K-12 MG1655, the “effect on growth of K-12 MG1655 in 2,3-butanediol” value is recorded as “significantly restored”, the “effect on growth of evolved strains in 1,2-propanediol” value is “did not have a significantly enhanced growth rate; also recorded: minimal effect”, the “effect on growth of the wild-type strain in 1,2-propanediol” value is reported as “significantly restored; also recorded: restore growth of the wild-type strain” and the “effect on growth rate of evolved strains in 2,3-butanediol” value was “did not have a significantly enhanced growth rate increase”.

With `CC(O)C(C)O` (centres unmarked) [2,3-butanediol], the toxicity threshold in data set [1] is reported as 7.5 % (v/v); in data set [1] (conversion of 7.5% (v/v)) it was 74.0 g/L. Moreover, the “Maximum concentration for robust growth” value in data set [1] worked out at 5%. The “μ, mean” value is 0.944 h⁻¹ in data set [1] (setting [2]); 0.791 h⁻¹ in data set [1] (setting [3]); 0.754 h⁻¹ in data set [1] (setting [4]); 0.498 h⁻¹ in data set [1] (setting [5]); 0.265 h⁻¹ in data set [1] (setting [6]); 0.054 h⁻¹ in data set [1] (setting [7]). Also, the “μ, mean” value in data set [1] (setting [8]) stood at 0.000 h⁻¹. Besides, the “tlag, mean” value in data set [1] (setting [9]) is 2.2 h; in data set [1] (setting [10]), 1.8 h; in data set [1] (setting [11]) it was 2.1 h; in data set [1] (setting [12]) it was 1.6 h; in data set [1] (setting [13]), -1.2 h.

As to `OCCCO` [1,3-propanediol], the “tlag, mean” value is recorded as 5.3 h with E. coli K-12 MG1655 (setting [14]); 6.1 h in the data set on E. coli K-12 MG1655 (setting [15]); 7.3 h with E. coli K-12 MG1655 (setting [16]); 9.6 h in the data set on E. coli K-12 MG1655 (setting [17]); 12.5 h in the data set with E. coli K-12 MG1655 (setting [18]); 14.7 h with E. coli K-12 MG1655 (setting [19]). For the same compound, in the data set on E. coli K-12 MG1655 (setting [20]), the “tlag, mean” value amounted to 24.9 h. The “μ, mean” value in the data set with E. coli K-12 MG1655 (setting [14]) was 0.670 h⁻¹; in the data set on E. coli K-12 MG1655 (setting [15]), 0.686 h⁻¹; in the data set on E. coli K-12 MG1655 (setting [16]), 0.603 h⁻¹; in the data set on E. coli K-12 MG1655 (setting [17]), 0.463 h⁻¹; with E. coli K-12 MG1655 (setting [18]), 0.277 h⁻¹; in the data set on E. coli K-12 MG1655 (setting [19]), 0.201 h⁻¹. In the data set with E. coli K-12 MG1655 (setting [20]), the “μ, mean” value amounted to 0.118 h⁻¹. Besides, the “growth inhibition of E. coli K-12 MG1655 (in words)” value in the data set with E. coli K-12 MG1655 (variable concentrations, Growth Profiler) is “elicited growth inhibition”.

The values are drawn from patent publication US20190309309A1, “BACTERIAL CELLS WITH IMPROVED TOLERANCE TO POLYOLS” (DANMARKS TEKNISKE UNIVERSITET, priority 2016, published 2019).
